# Patent publication US9555023B2, “Pharmaceutical salts and polymorphs of a factor Xa inhibitor” (Millennium Pharmaceuticals, Inc., priority 2005, dated 2017)
# Read-outs that look alike come from different tables or passages of the source.
# What was measured:
# [1] = Secondary screen: crystallinity (XRPD); type: physicochemical; conditions: for Crystallinity: secondary screen, Table 5
# Method: X-Ray Powder Diffraction patterns were collected on a Siemens D5000 diffractometer using CuKα radiation (40 kV, 40 mA), […], automatic divergence and receiving slits, a graphite secondary monochromator and a scintillation counter.
# Samples run under ambient conditions were prepared as flat plate specimens using powder. Approximately 35 mg of the sample was gently packed into a cavity cut into polished, zero-background (510) silicon wafer. The sample was rotated in its own plane during analysis. The details of the data collection are given for the method in Table 2 below: […]
# [2] = Stability: hydrolyzed amidine content by HPLC after 57° C. / 75% humidity; type: physicochemical; conditions: for Hydrolyzed Amidine Content (3 days) / Hydrolyzed Amidine Content (6 days) / Hydrolyzed Amidine Content (10 days): 57° C., 75% room humidity, percentage of the main peak
# Method: To assess the thermal and hydrolytic stability of the salt, tests known to those of skill in the art are performed.
# The sample solvent was methanol and a mobile phase modifier of 0.1% trifluoroacetic acid was employed. Data were collected after 3, 6 and 10 days except data for the propionate was collected at 0, 3, and 8 days. […] All other impurity peaks were disregarded in the calculation
# [3] = Primary salt screen (purity, crystallinity and stability of precipitated salts); conditions: 20 mg free base in 10% (aq.) THF, 1.1 eq. acid in ethanol, tert-butyl methyl ether to induce precipitation
# Method: To 20 mg of the free base in 3 mL of 10% (aq.) THF mixture was added 1.1 eq. of the acid in 1 mL ethanol. The mixture was shaken for 2 hours, followed by the addition of 2 mL of tert-butyl methyl ether in order to induce precipitation and shaken for another 2 hours. The samples were then filtered, dried and then analyzed to judge their purity, crystallinity and stability.
# [4] = Solubility in water by HPLC; type: physicochemical
# Method: This was measured by suspending enough salt in 0.25 mL of solvent (water) to give a maximum final concentration of ≧10 mg/mL of the parent free form of the salt. The suspension was equilibrated at 25° C. for 24 hr followed by a pH check and filtration through a glass fibre C 96 well plate. The filtrate was then diluted down 101×. Quantitation was by HPLC with reference to a standard dissolved in DMSO at approx 0.1 mg/mL. Different volumes of the standard, diluted and undiluted tests were injected. […] If there was sufficient solid in the filter plate the XRPD was normally checked for phase changes, hydrate formation, amorphization, crystallization, etc.
# [5] = Log P determination by potentiometric titration (Sirius GlpKa); type: physicochemical; conditions: Octanol:ISA water
# From the text: This was by potentiometric titration on a Sirius GlpKa instrument using three ratios of Octanol:ISA water to generate Log P, Log Pion, and Log D values. The data was refined using Refinement Pro software version 1.0. Predictions of Log P were made using ACD Ver. 8.08 and Syracuse KNOWWIN Ver. 1.67 software.
# [6] = Gravimetric vapour sorption (GVS) water sorption; type: physicochemical; conditions: GVS isotherm, XRPD post GVS
# Method: All samples were run on a Hiden IGASorp moisture sorption analyzer running CFRSorp software. Sample sizes were typically 10 mg. A moisture adsorption desorption isotherm was performed as outlined below (2 scans giving 1 complete cycle). All samples were loaded/unloaded at typical room humidity and temperature (40% RH, 25° C.). All samples were analyzed by XRPD post GVS analysis. The standard isotherm was performed at 25° C. at 10% RH intervals over a 0-90% RH range.
# factor Xa = factor Xa (Homo sapiens, UniProt P00742); conditions: cited from earlier work
# Sequence of factor Xa (P00742 235-488 limits assumed): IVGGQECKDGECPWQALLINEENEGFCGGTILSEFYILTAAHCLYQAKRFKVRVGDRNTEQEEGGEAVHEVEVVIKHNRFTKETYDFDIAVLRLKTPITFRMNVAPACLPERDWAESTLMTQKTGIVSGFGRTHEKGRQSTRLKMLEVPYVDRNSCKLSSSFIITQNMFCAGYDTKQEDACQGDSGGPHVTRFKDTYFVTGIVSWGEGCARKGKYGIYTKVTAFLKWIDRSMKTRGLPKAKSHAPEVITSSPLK
# Sequence of factor Xa (P00742 41-179 partner limits assumed): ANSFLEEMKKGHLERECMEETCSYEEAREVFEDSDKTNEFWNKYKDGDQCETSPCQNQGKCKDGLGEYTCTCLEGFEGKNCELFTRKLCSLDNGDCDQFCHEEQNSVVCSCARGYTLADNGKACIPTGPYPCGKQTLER
compound,measurement,setting,value
CC(=O)O [Acetate],crystallinity (in words),[1],good crystallinity
same,Crystallinity,[1],crystalline
same,thermal and hydrolytic stability (in words),[2],did not possess good thermal and hydrolytic stability
same,Hydrolyzed Amidine Content (3 days),[2],0.62-1.11%
same,Hydrolyzed Amidine Content (6 days),[2],2.30-3.56%
same,Hydrolyzed Amidine Content (10 days),[2],3.61-7.90%
Cl [Hydrochloric],Crystallinity,[1],amorphous
same,"Salt (primary screen grade: purity, crystallinity and stability)",[3],+++
COc1ccc(NC(=O)c2ccc(C(=N)N(C)C)cc2)c(C(=O)Nc2ccc(Cl)cn2)c1 [Maleate],solubility at 24 h,"[4]; thermodynamic from solid, water, 25° C., 24 hr, as parent free form",2050 to 2270 µg/mL
same,Measured LogPion,[5],−0.08
same,logD,[5]; read-out: Measured LogD,0.09
same,logP,[5]; read-out: Measured LogP,3.09
same,moisture stability,[6],excellent moisture stability
same,thermal and hydrolytic stability (in words),[2]; listed as maleate salt,best stability observed
same,thermal and hydrolytic stability (in words),[2]; listed as maleate salt of Formula II,excellent
O=C(O)CC(=O)O [Malonic],"Salt (primary screen grade: purity, crystallinity and stability)",[3],−
"O=S(=O)(O)c1cccc2c(S(=O)(=O)O)cccc12 [Naphthalene-1,5-disulfonic]","Salt (primary screen grade: purity, crystallinity and stability)",[3],+
O=C(O)CCC(=O)O [Succinic],Crystallinity,[1],amorphous
same,"Salt (primary screen grade: purity, crystallinity and stability)",[3],+++
COc1ccc(NC(=O)c2ccc(C(=N)N(C)C)cc2)c(C(=O)Nc2ccc(Cl)cn2)c1 [compound of Formula I],factor Xa inhibition (in words),factor Xa,potent factor Xa inhibitor
same,solubility (in words),[4],did not exhibit optimum solubility
Adipic,"Salt (primary screen grade: purity, crystallinity and stability)",[3],++
Propionic,Crystallinity,[1],crystalline
same,"Salt (primary screen grade: purity, crystallinity and stability)",[3],+++
same,Hydrolyzed Amidine Content (3 days),[2],2.22%
same,Hydrolyzed Amidine Content (6 days),[2],2.97%
same,Hydrolyzed Amidine Content (10 days),[2],1.71%
